In ChEMBL document CHEMBL4229535, “Design, synthesis and evaluation of oxime-functionalized nitrofuranylamides as novel antitubercular agents” (2018):
Converted amounts (≈) assume the structure as drawn.

Tested on: Mycobacterium tuberculosis
Assay: Antimycobacterial activity against Mycobacterium tuberculosis H37Rv ATCC 27294 after 7 days by microplate alamar blue assay
Assay type: functional
Conditions: H37Rv ATCC 27294, 168 h

| SMILES | MIC90 [µg/mL] |
| --- | --- |
| O=C(c1ccc([N+](=O)[O-])o1)N1CCc2ccccc21 | 0.482 (≈ 1.87 µM) |
| O=C(c1ccc([N+](=O)[O-])o1)N1CC/C(=N\OCc2ccccc2)C1 | 0.291 (≈ 0.884 µM) |
| O=C(c1ccc([N+](=O)[O-])o1)N1CCC(=NOCc2ccc(C(F)(F)F)cc2)CC1 | > 32 |
| CON=C1CCN(C(=O)c2ccc([N+](=O)[O-])o2)CC1 | 1.93 (≈ 7.23 µM) |
| O=C(c1ccc([N+](=O)[O-])o1)N1CCC(=NOCc2ccc([N+](=O)[O-])cc2)CC1 | > 32 |
| CCON=C1CCN(C(=O)c2ccc([N+](=O)[O-])o2)CC1 | 14.1 (≈ 50.3 µM) |
| O=C(c1ccc([N+](=O)[O-])o1)N1CCC(=NOCc2ccccc2)CC1 | 0.158 (≈ 0.46 µM) |
| O=C(c1ccc([N+](=O)[O-])o1)N1CCC(=NOCc2ccc(OC(F)(F)F)cc2)CC1 | > 32 |
| CO/N=C1\CCN(C(=O)c2ccc([N+](=O)[O-])o2)C1 | 1.83 (≈ 7.22 µM) |
| CCO/N=C1\CCN(C(=O)c2ccc([N+](=O)[O-])o2)C1 | > 32 |
| O=C(c1ccc([N+](=O)[O-])o1)N1CCC(=NOCc2ccc(F)cc2)CC1 | 5.88 (≈ 16.3 µM) |
| NNC(=O)c1ccncc1 [ISONIAZID] | 0.035 (≈ 0.255 µM) |
| CO[C@H]1/C=C/O[C@@]2(C)Oc3c(C)c(O)c4c(O)c(c(/C=N/N5CCN(C)CC5)c(O)c4c3C2=O)NC(=O)/C(C)=C\C=C\[C@H](C)[C@H](O)[C@@H](C)[C@@H](O)[C@@H](C)[C@H](OC(C)=O)[C@@H]1C [RIFAMPIN] | 0.059 (≈ 0.0717 µM) |
